Among the data in ChEMBL document CHEMBL1201862, “PubChem BioAssay data set” (2004) are IC50, AC50 and EC50 values, retold here.

Usually IC50 stands for the concentration that gives 50% inhibition. As usually defined, the AC50 is the midpoint of the concentration-response curve, whichever way the signal moves. Usually EC50 stands for the concentration giving half of the maximal effect.

Each structure is given as a SMILES string. Activity calls are given as the source filed them.

Test [1] in a line: ADAM10 inhibitors, peptide cleavage, dose response, biochemical, QFRET (AID 743254).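 Note: ADAM10 enzyme with the DM2 quenched FRET peptide as substrate; EDANS fluorescence gain as the protease cuts the substrate; inhibitor potency against ADAM10 proteolytic activity.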
Test [2] has as its target Disintegrin and metalloproteinase domain-containing protein 17 (Homo sapiens, UniProt P78536). Kind of test: ADAM17 protease inhibitors, dose response, counter-screen for ADAM10 exosite inhibitor project, biochemical, quenched FRET substrate (AID 743253). (The purpose of a counterscreen is to sort out artefacts and off-target activity.)
Test [3] is described as follows: LGR2 antagonists, dose response, cell-based, HEK293, CRE-luciferase reporter, cherry pick (AID 743342). Format: functional. (A reporter such as luciferase makes a cellular process visible.)
The nature of test [4]: MC4R antagonists, dose response, counter-screen for LGR2 antagonist project, cell-based, plate reader, cherry pick (AID 743444).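 Note: transfected HEK 293 cells stimulated with alpha-MSH peptide; potency of inhibitors of the alpha-MSH evoked signal.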 Format: functional.
For test [5], the target named is Protein disulfide-isomerase A6 (Homo sapiens, UniProt Q15084). Put plainly: Secondary Assay for Selectivity of PDI Inhibitors (against ERp5) Measured in Biochemical System Using Plate Reader - 2137-04_Inhibitor_Dose_DryPowder_Activity_Set3.
Test [6] in a line: HeLa cell cytotoxicity, dose response, cytotoxicity control, ATP luminescence, dry powder (AID 652117). In kind it is functional, cell-based.
In test [7] the target is Protein disulfide-isomerase (Homo sapiens, UniProt P07237). Kind of test: PDI inhibitors, insulin turbidity readout, confirmation, biochemical, dry powder samples, set 2 (AID 652146).
Test [8] can be described thus: cells. In kind it is functional, cell-based.
Test [9] in a line: inhibitors of intracellular T. cruzi replication, confirmation, NIH3T3 host cells, beta-gal luminescence (AID 2044).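 Note: intracellular parasites grown in NIH/3T3 mouse fibroblasts as host cells; luminescent beta-galactosidase reporter signal from transgenic T. cruzi replicating inside host cells; inhibitors lower the luminescence signal.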 In kind it is functional, cell-based.
Test [10] is described as follows: cells. Format: functional, cell-based. This is another data set of the same source.
Test [11] in a line: cytotoxicity toward NIH3T3 fibroblasts, dose response, counter-screen, cell-based, ATP luminescence, mouse fibroblasts (AID 2010).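 Note: cells exposed to compound for about 90 hours before reading.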 Format: functional.
For test [12], the target named is T1, Microphthalmia-associated transcription factor (Homo sapiens, UniProt O75030).
T1 sequence (O75030 whole entry): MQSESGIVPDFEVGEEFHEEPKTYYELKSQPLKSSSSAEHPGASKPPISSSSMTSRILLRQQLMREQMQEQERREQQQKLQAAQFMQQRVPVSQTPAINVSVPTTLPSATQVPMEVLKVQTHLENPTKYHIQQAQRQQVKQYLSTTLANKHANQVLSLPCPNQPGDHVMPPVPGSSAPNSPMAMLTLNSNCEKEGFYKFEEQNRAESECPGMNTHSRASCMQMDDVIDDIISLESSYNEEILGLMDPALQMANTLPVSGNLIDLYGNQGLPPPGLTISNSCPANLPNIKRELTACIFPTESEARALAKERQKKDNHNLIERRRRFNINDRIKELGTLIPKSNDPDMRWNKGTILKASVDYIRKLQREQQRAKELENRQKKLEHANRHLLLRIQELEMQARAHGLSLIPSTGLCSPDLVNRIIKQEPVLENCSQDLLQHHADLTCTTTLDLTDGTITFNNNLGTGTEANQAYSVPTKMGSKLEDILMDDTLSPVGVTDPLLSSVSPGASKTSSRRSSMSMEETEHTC
Put plainly: TRPM1 promoter luciferase signal decrease, dose response, MITF inhibitor project, cell-based, SK-MEL-5, cherry-picked, set 3 (AID 493073).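 Note: SK-MEL-5 melanoma cells with luciferase driven by the MITF target TRPM1 promoter.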 Format: functional.

In another test the test system is A-375. Kind of test: MITF: Counter assay: A375 proliferation Measured in Cell-Based System Using Plate Reader - 2084-03_Inhibitor_Dose_DryPowder_Activity. [Related pubchem assays (depositor defined):AID488944]. As to conditions: Homo sapiens. Format: functional.
Test [13] concerns the target T2, DNA repair protein RAD52 homolog (Homo sapiens, UniProt P43351).
T2 sequence (P43351 whole entry): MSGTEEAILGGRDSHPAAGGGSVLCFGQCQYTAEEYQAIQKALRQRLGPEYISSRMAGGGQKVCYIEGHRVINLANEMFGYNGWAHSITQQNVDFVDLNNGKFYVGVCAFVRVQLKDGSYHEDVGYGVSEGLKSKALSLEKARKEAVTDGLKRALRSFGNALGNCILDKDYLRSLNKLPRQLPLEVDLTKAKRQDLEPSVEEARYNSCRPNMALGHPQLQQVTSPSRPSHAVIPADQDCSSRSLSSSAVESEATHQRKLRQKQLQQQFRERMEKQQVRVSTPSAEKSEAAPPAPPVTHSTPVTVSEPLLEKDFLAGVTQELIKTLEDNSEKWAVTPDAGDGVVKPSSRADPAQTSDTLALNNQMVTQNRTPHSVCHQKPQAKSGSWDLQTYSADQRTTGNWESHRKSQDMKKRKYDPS
In kind it is functional, biochemical.

Test [14] is described as follows: HepG2 cell cytotoxicity, dose response, cytotoxicity control, ATP luminescence, cherry-pick, set 6 (AID 1053125). Format: functional, cell-based.
For another test, the target named is Transthyretin (Homo sapiens, UniProt P02766). Kind of test: Luminescence-based cell-based high throughput dose response assay to identify activators of Transthyretin (TTR) transcription. Format: functional.
A short description of test [15]: cells. The following applies: A549.
Test [16] in a line: cells.
Test [17] is described as follows: cells. The following applies: HEK293.
Test [18] can be described thus: NIH-3T3 fibroblast cytotoxicity, dose response, cytotoxicity control, cell-based, fluorescence, Alamar Blue, secondary assay (AID 2327).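 Note: NIH-3T3 mouse fibroblasts cultured with fluconazole at 8 µg/mL.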 Format: functional.
A short description of test [19]: C. albicans growth with fluconazole, confirmation, fluorescence, retest (AID 2467). In kind it is functional, cell-based.
The next test deals with INS1. Kind of test: beta cell apoptosis inhibitors, cytokine rescue, dose response, luminescence, retest (AID 449756).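 Note: cell death triggered by IL-1 beta plus TNF-alpha plus IFN-gamma mixture; protective hits raise ATP signal compared with cytokine alone wells.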 In kind it is functional, cell-based. As to conditions: Rattus norvegicus.
The nature of test [20]: off-target signal loss in HeLa-CEM21 co-culture – HeLa F-luc CTL cells, cherry-picked, counter-screen for HIV-1 Env fusion inhibitor project, dose response (AID 652040).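 Note: potency for signal decrease marking cytotoxic or nonspecific inhibition.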 In kind it is functional, cell-based.
Test [21] can be described thus: inhibitors of clade B AD8 Env fusion, dose response, cell-based, cherry-pick (AID 652062).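 Note: luciferase signal from cell-cell fusion driven by HIV-1 clade B AD8 Env; potency is for inhibitors of fusion seen as a drop in luminescence.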 Format: functional.
Test [22] has as its target COUP transcription factor 2 (Homo sapiens, UniProt P24468). Kind of test: Luminescence-based cell-based high throughput dose response assay to identify inhibitors of COUP-TFII (NR2F2). In kind it is functional.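 Note: HEK293 cells transiently cotransfected with COUP-TFII expression vector and reporter; luciferase reporter luminescence driven by COUP-TFII from the pX2-168 reporter plasmid.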
Test [23] deals with 1-phosphatidylinositol 4,5-bisphosphate phosphodiesterase gamma-1 (Homo sapiens, UniProt P19174). Put plainly: Counterscreen for inhibitors of phospholipase C isozymes (PLC-B3): Fluorescence-based biochemical high throughput dose response assay to identify inhibitors of phospholipase C isozymes (PLC-gamma1).
For test [24], the target named is 1-phosphatidylinositol 4,5-bisphosphate phosphodiesterase beta-3 (Homo sapiens, UniProt Q01970). Put plainly: Fluorescence-based biochemical high throughput dose response assay to identify inhibitors of phospholipase C isozymes (PLC-B3).
In the next test the target is Caspase-6 (Homo sapiens, UniProt P55212). Kind of test: human caspase-6 inhibitors, dose response, biochemical, VEID-R110 fluorescence, cherry-pick (AID 720632).
A further test addresses Caspase-7 (Homo sapiens, UniProt P55210). Kind of test: human caspase-7 inhibitors, dose response, selectivity assay for caspase-6 inhibitor project, biochemical, DEVD-R110 fluorescence, cherry-pick (AID 743295). Format: […].
The target in another test is Protein Wnt-3a (Mus musculus, UniProt P27467). Kind of test: SAR analysis of small molecule antagonists of Gli-SUFU in a Wnt3a luminescent reporter assay. In kind it is functional.
A short description of test [25]: A375 melanoma cell viability loss, dose response, counter-screen for MITF inhibitor project, CellTiter-Glo luminescence, dry powder, set 4 (AID 624364).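 Note: A375 melanoma cells are MITF independent so this is a counter screen.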 As to conditions: A-375. Format: functional, cell-based.
The nature of test [26]: A375 melanoma cell cytotoxicity, dose response, counter-screen for MITF inhibitor project, CellTiter-Glo luminescence, dry powder, set 2 (AID 624489).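 Note: actives are compounds lowering A375 viability meaning general cytotoxicity.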 In kind it is functional, cell-based. As to conditions: A-375.

1-phosphatidylinositol 4,5-bisphosphate phosphodiesterase gamma-1, sequence (P19174 whole entry): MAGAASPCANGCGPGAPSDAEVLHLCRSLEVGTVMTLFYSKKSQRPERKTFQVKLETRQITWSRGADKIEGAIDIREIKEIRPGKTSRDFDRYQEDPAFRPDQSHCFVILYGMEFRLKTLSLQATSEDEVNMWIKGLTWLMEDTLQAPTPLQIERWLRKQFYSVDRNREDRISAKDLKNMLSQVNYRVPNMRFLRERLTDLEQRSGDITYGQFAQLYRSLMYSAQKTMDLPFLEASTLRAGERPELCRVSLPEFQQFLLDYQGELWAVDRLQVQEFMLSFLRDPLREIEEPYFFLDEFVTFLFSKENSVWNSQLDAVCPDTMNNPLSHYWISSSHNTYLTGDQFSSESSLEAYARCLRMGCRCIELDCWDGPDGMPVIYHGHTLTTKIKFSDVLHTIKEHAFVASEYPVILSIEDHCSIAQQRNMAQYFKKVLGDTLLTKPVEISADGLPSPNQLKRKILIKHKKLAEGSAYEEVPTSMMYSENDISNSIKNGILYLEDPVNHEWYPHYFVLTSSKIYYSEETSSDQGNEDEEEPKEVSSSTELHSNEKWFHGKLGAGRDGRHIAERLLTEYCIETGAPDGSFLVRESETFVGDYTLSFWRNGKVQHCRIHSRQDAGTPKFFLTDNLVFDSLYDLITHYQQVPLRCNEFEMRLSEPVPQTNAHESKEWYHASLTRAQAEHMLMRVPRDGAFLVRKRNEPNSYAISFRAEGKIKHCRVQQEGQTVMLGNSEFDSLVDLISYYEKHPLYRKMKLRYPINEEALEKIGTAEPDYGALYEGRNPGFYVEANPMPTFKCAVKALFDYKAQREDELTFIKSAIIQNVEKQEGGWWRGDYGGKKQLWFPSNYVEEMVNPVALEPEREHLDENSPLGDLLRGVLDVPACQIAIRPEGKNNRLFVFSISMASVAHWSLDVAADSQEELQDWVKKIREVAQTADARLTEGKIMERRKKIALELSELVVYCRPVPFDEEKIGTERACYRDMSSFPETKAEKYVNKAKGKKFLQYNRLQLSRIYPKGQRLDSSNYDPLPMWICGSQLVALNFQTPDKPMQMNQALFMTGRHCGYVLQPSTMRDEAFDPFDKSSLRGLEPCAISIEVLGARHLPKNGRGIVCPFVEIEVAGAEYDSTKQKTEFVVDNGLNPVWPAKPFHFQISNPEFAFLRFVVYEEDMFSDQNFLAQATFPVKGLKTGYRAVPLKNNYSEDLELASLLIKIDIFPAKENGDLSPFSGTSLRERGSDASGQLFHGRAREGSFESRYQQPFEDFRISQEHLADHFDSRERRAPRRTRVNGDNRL
Disintegrin and metalloproteinase domain-containing protein 17, sequence (P78536 whole entry, the tested form may be a part): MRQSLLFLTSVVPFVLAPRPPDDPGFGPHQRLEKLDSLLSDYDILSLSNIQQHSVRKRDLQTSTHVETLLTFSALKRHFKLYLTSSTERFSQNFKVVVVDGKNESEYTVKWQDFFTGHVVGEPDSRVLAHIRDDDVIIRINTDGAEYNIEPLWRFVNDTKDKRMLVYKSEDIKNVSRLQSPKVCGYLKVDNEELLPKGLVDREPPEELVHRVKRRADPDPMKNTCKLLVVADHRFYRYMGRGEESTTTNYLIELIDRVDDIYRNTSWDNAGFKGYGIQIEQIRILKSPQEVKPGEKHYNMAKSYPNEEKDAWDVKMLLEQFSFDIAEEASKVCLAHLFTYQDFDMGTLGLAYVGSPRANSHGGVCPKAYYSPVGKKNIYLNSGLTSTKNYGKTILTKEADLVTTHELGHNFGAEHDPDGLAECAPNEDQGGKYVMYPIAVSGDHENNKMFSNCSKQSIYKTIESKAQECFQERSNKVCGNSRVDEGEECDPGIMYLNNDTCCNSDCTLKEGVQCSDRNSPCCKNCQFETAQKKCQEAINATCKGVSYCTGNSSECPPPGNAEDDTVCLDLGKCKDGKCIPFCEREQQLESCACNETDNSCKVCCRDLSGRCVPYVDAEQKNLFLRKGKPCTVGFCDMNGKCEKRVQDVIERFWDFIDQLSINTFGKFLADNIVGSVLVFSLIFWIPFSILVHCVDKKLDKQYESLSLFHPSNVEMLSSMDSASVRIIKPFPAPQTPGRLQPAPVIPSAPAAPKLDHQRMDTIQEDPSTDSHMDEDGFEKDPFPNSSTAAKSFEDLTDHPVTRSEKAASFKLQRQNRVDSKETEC
Caspase-6, sequence (P55212 24-179 limits assumed): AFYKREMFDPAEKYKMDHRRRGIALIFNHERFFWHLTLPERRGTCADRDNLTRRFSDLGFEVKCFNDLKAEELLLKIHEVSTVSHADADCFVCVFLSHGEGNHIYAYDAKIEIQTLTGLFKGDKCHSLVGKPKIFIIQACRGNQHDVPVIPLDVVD
Caspase-6, sequence (P55212 194-293 limits assumed): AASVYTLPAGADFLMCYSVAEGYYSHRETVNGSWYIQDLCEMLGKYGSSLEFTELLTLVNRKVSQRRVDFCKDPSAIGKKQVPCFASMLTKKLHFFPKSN
Protein disulfide-isomerase A6, sequence (Q15084 whole entry): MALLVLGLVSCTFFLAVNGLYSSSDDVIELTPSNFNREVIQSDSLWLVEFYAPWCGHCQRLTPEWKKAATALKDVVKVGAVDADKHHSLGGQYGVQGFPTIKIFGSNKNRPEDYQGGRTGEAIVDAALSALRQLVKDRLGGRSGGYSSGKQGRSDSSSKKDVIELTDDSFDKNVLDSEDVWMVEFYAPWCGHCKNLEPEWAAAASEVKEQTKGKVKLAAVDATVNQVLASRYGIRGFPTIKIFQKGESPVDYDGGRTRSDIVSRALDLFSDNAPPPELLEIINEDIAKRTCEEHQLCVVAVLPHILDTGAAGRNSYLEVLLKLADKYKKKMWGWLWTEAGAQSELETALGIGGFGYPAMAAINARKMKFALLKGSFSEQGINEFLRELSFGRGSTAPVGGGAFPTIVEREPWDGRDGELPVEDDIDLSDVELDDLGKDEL
Caspase-7, sequence (P55210 24-198 limits assumed): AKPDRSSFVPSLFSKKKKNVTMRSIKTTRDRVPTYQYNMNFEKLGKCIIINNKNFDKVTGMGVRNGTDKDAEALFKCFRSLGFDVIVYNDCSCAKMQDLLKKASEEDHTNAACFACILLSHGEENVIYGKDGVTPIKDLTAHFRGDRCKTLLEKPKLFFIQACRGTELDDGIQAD
Caspase-7, sequence (P55210 207-303 limits assumed): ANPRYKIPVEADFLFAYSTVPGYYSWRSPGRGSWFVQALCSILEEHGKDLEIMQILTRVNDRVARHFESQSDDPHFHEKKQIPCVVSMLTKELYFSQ
COUP transcription factor 2, sequence (P24468 whole entry): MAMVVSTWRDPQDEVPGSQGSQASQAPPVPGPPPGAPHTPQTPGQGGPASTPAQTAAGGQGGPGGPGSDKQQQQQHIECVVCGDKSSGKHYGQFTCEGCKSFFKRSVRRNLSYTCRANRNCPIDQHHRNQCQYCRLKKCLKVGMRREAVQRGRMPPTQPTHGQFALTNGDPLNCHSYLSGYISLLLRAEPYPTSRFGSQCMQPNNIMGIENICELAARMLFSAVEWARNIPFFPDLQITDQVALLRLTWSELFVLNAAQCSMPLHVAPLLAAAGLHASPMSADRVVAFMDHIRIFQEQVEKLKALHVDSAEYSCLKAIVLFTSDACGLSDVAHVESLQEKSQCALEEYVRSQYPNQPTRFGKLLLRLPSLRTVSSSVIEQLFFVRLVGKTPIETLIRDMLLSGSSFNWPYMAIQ
1-phosphatidylinositol 4,5-bisphosphate phosphodiesterase beta-3, sequence (Q01970 whole entry): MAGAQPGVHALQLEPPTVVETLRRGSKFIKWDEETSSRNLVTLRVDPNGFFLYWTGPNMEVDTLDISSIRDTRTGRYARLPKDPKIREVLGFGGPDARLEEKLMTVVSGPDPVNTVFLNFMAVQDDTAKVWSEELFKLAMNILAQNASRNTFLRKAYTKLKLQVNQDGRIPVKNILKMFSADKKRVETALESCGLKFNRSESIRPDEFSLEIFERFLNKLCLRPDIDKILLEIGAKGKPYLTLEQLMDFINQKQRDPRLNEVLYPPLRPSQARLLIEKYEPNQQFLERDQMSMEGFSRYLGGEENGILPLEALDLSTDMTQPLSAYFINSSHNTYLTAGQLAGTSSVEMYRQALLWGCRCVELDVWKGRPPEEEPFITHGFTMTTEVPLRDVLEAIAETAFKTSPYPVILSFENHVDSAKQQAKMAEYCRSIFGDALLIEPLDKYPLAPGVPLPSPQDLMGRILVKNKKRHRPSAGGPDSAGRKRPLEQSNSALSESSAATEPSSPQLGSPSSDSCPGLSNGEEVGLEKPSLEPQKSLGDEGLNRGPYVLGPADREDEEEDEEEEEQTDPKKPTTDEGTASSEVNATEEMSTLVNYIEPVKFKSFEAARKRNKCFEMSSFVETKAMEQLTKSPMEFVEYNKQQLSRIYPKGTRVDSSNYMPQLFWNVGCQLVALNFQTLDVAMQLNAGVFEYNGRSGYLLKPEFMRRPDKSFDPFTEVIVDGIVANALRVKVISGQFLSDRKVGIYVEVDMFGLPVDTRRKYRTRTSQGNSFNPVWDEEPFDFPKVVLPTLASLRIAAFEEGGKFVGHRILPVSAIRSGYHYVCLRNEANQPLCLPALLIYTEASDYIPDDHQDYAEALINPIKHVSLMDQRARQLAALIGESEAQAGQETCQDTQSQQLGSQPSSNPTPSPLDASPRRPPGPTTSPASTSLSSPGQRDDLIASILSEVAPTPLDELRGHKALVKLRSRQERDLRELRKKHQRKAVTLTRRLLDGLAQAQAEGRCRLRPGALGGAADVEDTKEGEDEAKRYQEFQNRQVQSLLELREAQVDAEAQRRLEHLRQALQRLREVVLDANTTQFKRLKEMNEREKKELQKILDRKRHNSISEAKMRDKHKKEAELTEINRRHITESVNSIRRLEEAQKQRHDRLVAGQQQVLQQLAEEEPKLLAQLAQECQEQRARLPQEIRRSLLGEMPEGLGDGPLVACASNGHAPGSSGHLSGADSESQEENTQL

`COc1ccc(C(=O)N/N=C/c2ccc(OC)c(COc3ccccc3)c2)cc1`: the IC50 in [1] and in test [2] was > 69.5 µM (inactive) throughout.

For `C[C@H](CO)N1C[C@H](C)[C@H](CN(C)C(=O)Nc2ccc(F)cc2)OCCCC[C@H](C)Oc2ccc(NC(=O)C3CCCCC3)cc2C1=O`, the AC50 is 1.82 µM (active) in [3] and 65.8 µM (active) in [4].

On to `CC(C)OC(=O)C1(CCOc2ccccc2)CCN(Cc2ccc(O)c(Cl)c2)CC1`, for which the AC50 in [5] is 30 µM (inactive); in [6], 47.9 µM (active); in test [7], 1 µM (active).

Take `OCCNc1c2ccccc2nc2ccccc12`: the EC50 in the test “cells [8]” is 23 µM (active); in [9], 0.993 µM (active); in “cells [10]”, > 350 µM (not active); in test [11], 7.92 µM (active); at Transthyretin it was > 167 µM (inactive). In addition, the AC50 in test [12] was 7.28 µM (active); in the test on A-375, 28.6 µM (active); in test [13], 9.09 µM (active); in test [14], 17 µM (active); in “cells [15]”, 11.6 µM (active); in the test “cells [16]”, 11.7 µM (active). Moreover, the AC50 in “cells [17]” is 14.2 µM (active).

For `Clc1ccc(OCCN2CCN(c3ncnc4sccc34)CC2)cc1`, the EC50 was > 150 µM (inactive) in [18] and 0.044 µM (active) in test [19]. Besides, the half-maximal activity concentration (AC50) is 0.503 µM (active) in the test on INS1, > 70 µM (inactive) in test [20] and < 0.26 µM (active) in test [21]. Moreover, in test [22], the IC50 is 1.13 µM (active).

Turning to `O=C(CSCc1ccccc1)Nc1cccc(F)c1`, the IC50 in [23] and in test [24] was > 122 µM (inactive) each time.

Consider `Cc1n[nH]c([S+]([O-])CC(=O)O)c1[N+](=O)[O-]` (configuration not stated), for which the AC50 on Caspase-6 was 4.04 µM (active); at Caspase-7, 56.5 µM (active).

In the case of `O=C(Nc1cc(N2CCCCC2)ncn1)c1ccc(C(F)(F)F)cc1`, the IC50 on Protein Wnt-3a was > 21.8 µM (inactive).

In the case of `O=C1C(NS(=O)(=O)c2ccc(Br)cc2)=C(N2CCSCC2)C(=O)c2ccccc21`, the AC50 in test [25] and in test [26] was > 70 µM (inactive) throughout.
